# Results published in patent publication US20070293539A1, “Methods for the treatment of synucleinopathies” (priority 2004, published 2007).
# “Also recorded” adds a separate entry of the source.
# Tests used:
# [1] = system: UCH-L1; test: 2D electrophoresis and Western blotting of membrane-bound and cytosolic UCH-L1 in SH-SY5Y cells; assay type: cell-based; details: compared to cells treated with DMSO
# Method: 2D electrophoresis: For the isolation of total cellular protein, cultured SH-SY5Y cells maintained as described above were rinsed with ice-cold PBS. Cells were lysed in 1 ml dSDS buffer (50 mM Tris-HCl, pH 8.0 0.1% SDS) supplemented with protease inhibitor cocktail. Lysates were boiled for 3 min, and were treated with Dnase and Rnase as described. Lysates were precipitated with ice-cold acetone for at least 2 hours, and pellets were resuspended in 2D sample buffer (8M urea, 0.5% CHAPS, 0.2% DTT, 0.5% IPG buffer, 0.002% bromophenol blue). 2D electrophoresis was carried out according to manufacture's protocol (Amersham Life Science). 7 cm pH 4-7 strips were used. For SH-SY5Y membrane fraction, culture SH-SY5Y cells were rinsed with cold PBS and harvested with lysis buffer (50 mM Tris-HCl, pH 8.0, 1 mM ZnAc2, 250 mM sucrose). Lysate was passed through 25G needles for several times and spun at 1000 g for 5 min. […]
# (§1) Western Blotting: Following transfer of SDS gels onto NC membrane, all membranes were blocked with 5% non-fat milk in TBST (50 mM Tris-HCl pH7.4, 150 mM NaCl, 0.1% Tween 20), and incubated with primary antibody overnight with 1% BSA in TBST, washed three times with TBST, and incubated with horseradish peroxidase-conjugated secondary antibody for 1 hour (Promega). Bound antibodies were detected using enhanced chemiluminascence (NEM). […]
# [2] = system: α-synuclein; test: α-synuclein accumulation in SH-SY5Y cells infected with α-synuclein-expressing adenovirus, Western blotting normalized against actin; assay type: cell-based
# Method: (§2) Viral Infection: Viral infection and MTT assay in SH-SY5Y cells: The viruses were amplified and purified according to the published procedure. SH-SY5Y cells were grown on 100 mm petri-dishes and induced with 100 nM RA for 3-5 days before the virus infection with M.I.O at 75. Viruses were diluted with DPBS to desired M.I.O. After four hours of incubation, 10 ml growth medium was added. On the second day, cells were splitted into 96-well plates and treated with compounds for next 48 hours. The growth medium in each well was replaced with growth medium with 5 ug/ml MTT. Medium was removed after three hours incubation, and 200 ul isopropyl (0.04N HCl) was added into each well. The signal was read at 570 nm.
# Western Blotting: Following transfer of SDS gels onto NC membrane, all membranes were blocked with 5% non-fat milk in TBST (50 mM Tris-HCl pH7.4, 150 mM NaCl, 0.1% Tween 20), and incubated with primary antibody overnight with 1% BSA in TBST, washed three times with TBST, and incubated with horseradish peroxidase-conjugated secondary antibody for 1 hour (Promega). Bound antibodies were detected using enhanced chemiluminascence (NEM).
# Since α-synuclein neurotoxicity is dose-dependent, it follows that accumulation of α-synuclein, caused by UCH-L1 farnesylation, should promote its toxicity. […] (F) Cell viability was assessed by the amount of metabolic activity using MTT assay. […]
# [3] = system: UCH-L1; test: total amount and turnover of UCH-L1 in SH-SY5Y cells (pulse-chase experiment not shown); assay type: cell-based
# [4] = system: α-synuclein; test: α-synuclein degradation assay in transfected COS-7 cells, quantitative Western blotting; assay type: cell-based
# Text: Plasmids: C220S cDNA was generated by PCR site-specific mutagenesis. For the PCR, the 5′ primer is uchforw SEQ ID NO: 1 ([…]), and 3′ primer is uchc220s SEQ ID NO:2 (CTAAGA […]). Wt UCH-L1 served as the template. The PCR fragment was inserted into pcDNA vector. For S18YC220S mutant, S18Y UCH-L1 served as the template in PCR. For the FLAG tagged UCH-L1, the 5′ primer is FLAGuchforw SEQ ID NO: 3 ([…] CGATGGAG), and the 3′ primer is uchrev SEQ ID NO: 4 ([…]). Wt UCH-L1 or C220S served as the template. PCR fragment was purified and inserted into pcDNA vector. For the FLAG tagged UCH-L3, the 5′ primer is L3HindIII SEQ ID NO: 5 (CTAAAGCTTATGGACTAC […]), the 3′ primer is L3XhoISAA SEQ ID NO: 6 ([…]). […] After 24 hours of incubation, the cells were lysed with Tris buffer (50 mM Tris, 2% SDS, 0.1% NP-40), and subjected to SDS-PAGE, followed by quantitative Western blotting.
# as §1
# [5] = system: SH-SY5Y cells infected by α-synuclein-expressing adenovirus; test: α-synuclein toxicity in SH-SY5Y cells infected by α-synuclein-expressing adenovirus (Trypan blue viable cell counting, MTT assay); assay type: cell-based; details: SH-SY5Y cells overexpressing α-synuclein via adenoviral vector, compared to DMSO
# Method: as §2
# Viable cell counting: At stated time poins, SH-SY5Y cells were trypsinized with 100 ul trypsin-EDTA for 1 minute and neutralized with 400 ul growth medium. Cell suspension was made up by mixing 0.2 ml of cells in growth medium, 0.3 ml of HBSS and 0.5 ml of 0.4% Trypan Blue solution. Viable cell numbers were counted by standard cell counting chamber.
# Since α-synuclein neurotoxicity is dose-dependent, it follows that accumulation of α-synuclein, caused by UCH-L1 farnesylation, should promote its toxicity. […] These cells express high endogenous levels of UCH-L1. […] The unit of y-axis is 10^5/ml. (F) Cell viability was assessed by the amount of metabolic activity using MTT assay. […]
# [6] = human, in vivo; cited from earlier work
# [7] = taken in a low dose; cited from earlier work
smiles,measurement,setting,value
COC(=O)[C@H](CCSC)NC(=O)c1ccc(NC[C@@H](N)CS)cc1-c1ccccc1 [FTI-277],amount of cytosolic UCH-L1,[1],without affecting
same,amount of membrane bound UCH-L1,[1],significant decrease; also recorded: decreased the amount of the membrane-associated species; also recorded: reducing the amount of membrane-associated protein
same,amount of α-synuclein,[2],reducing the amount of α-synuclein accumulation; also recorded: reduced the amount of α-synuclein
same,total amount of UCH-L1,[3],reduced the total amount of UCH-L1
same,rate of turnover of UCH-L1,[3]; pulse-chase experiment not shown,increased its rate of turnover
same,synuclein level,[4]; COS-7 cells,lowers synuclein level
same,α-synuclein toxicity (loss of cells),[5],inhibits synuclein toxicity; also recorded: rescued α-synuclein toxicity; also recorded: significantly decreased loss of cells
N[C@@H](Cc1ccc(O)c(O)c1)C(=O)O [levodopa],patients that do not respond,[6],About 15%
CC(=O)N[C@@H](CSC(=O)[C@]1([C@@H](O)C(C)C)NC(=O)[C@H](C)[C@@H]1O)C(=O)O [lactacysteine],accumulation of α-synuclein,"[4]; transfected COS-7 cells, 16 kDa α-synuclein normalized against actin",100%
C#CCN(C)[C@H](C)Cc1ccccc1 [selegiline],delay of the need for levodopa,[7],roughly three
